Source: PubChem BioAssay AID1745844 (Carcinogenic Potency Database (CPDB), 2022)
Active and inactive are the calls of the source. No rule for the calls is given here.

Test system: rodent lifetime carcinogenesis bioassay, tumor incidence TD50
Assay: carcinogenic potency in animals, long-term in vivo studies, CPDB compilation (AID 1745844)

With COc1cc(-c2ccc(N)c(OC)c2)ccc1N the carcinogen call (mouse, strain BALB/cStCrlfC3Hf/Nctr, females, in drinking water, site: Harderian gland, lesion: adenoma, dosed 78 weeks, study length 78 weeks) was “negative (inactive)”, the carcinogen call (mouse, strain BALB/cStCrlfC3Hf/Nctr, females, in drinking water, site: Harderian gland, lesion: adenoma, dosed 112 weeks, study length 112 weeks) was “negative (inactive)” and the carcinogen call (mouse, strain BALB/cStCrlfC3Hf/Nctr, females, in drinking water, site: Harderian gland, lesion: carcinoma, dosed 78 weeks, study length 78 weeks) was “negative (inactive)”. The TD50 (mouse, strain BALB/cStCrlfC3Hf/Nctr, males, in drinking water, site: Harderian gland, lesion: adenoma, dosed 78 weeks, study length 78 weeks) was 3560 mg/kg/day (inactive), the carcinogen call (mouse, strain BALB/cStCrlfC3Hf/Nctr, males, in drinking water, site: Harderian gland, lesion: adenoma, dosed 112 weeks, study length 112 weeks) was “negative (inactive)” and the TD50 (mouse, strain ICR/Jcl, males, in feed, site: liver, lesion: hepatoma, dosed 65 weeks, study length 65 weeks) was 73.8 mg/kg/day. It also gave a TD50 (rat, strain Fischer 344, females, in drinking water, site: Zymbal's gland, lesion: adenoma + carcinoma + carcinoma, bilateral, dosed 91 weeks, study length 93 weeks) of 6.74 mg/kg/day, a TD50 (rat, strain Fischer 344, females, in drinking water, site: Zymbal's gland, lesion: adenoma, dosed 91 weeks, study length 93 weeks) of 27.5 mg/kg/day and a TD50 (rat, strain Fischer 344, females, in drinking water, site: Zymbal's gland, lesion: carcinoma + carcinoma, bilateral, dosed 91 weeks, study length 93 weeks) of 8.41 mg/kg/day. For the same compound, the TD50 (rat, strain Fischer 344, females, in drinking water, site: all sites, lesion: mononuclear-cell leukemia, dosed 91 weeks, study length 93 weeks) was 6.71 mg/kg/day, the TD50 (rat, strain Fischer 344, females, in drinking water, site: any site (literature study), lesion: several types, types named in the paper, dosed 91 weeks, study length 93 weeks) was 1.09 mg/kg/day and the TD50 (rat, strain Fischer 344, females, in drinking water, site: cervix uteri + uterus, lesion: carcinoma + papillary adenoma + adenoma, dosed 91 weeks, study length 93 weeks) was 14 mg/kg/day. It also gave a TD50 (rat, strain Fischer 344, females, in drinking water, site: cervix uteri + uterus, lesion: papillary adenoma + adenoma, dosed 91 weeks, study length 93 weeks) of 15.8 mg/kg/day, a TD50 (rat, strain Fischer 344, females, in drinking water, site: clitoral gland + cervix uteri + colon, descending + liver + mammary gland + palate + pharynx + rectum + skin + tongue + uterus + Zymbal's glan, lesion: adenoma + adenoma, bilateral + carcinoma + carcinoma, bilateral + papillary adenoma + adenocarcinoma + adenomatous polyp + hepatocellu, dosed 91 weeks, study length 93 weeks) of 1.19 mg/kg/day and a TD50 (rat, strain Fischer 344, females, in drinking water, site: clitoral gland, lesion: adenoma + adenoma, bilateral + carcinoma + carcinoma, bilateral, dosed 91 weeks, study length 93 weeks) of 1.6 mg/kg/day. The TD50 (rat, strain Fischer 344, females, in drinking water, site: clitoral gland, lesion: adenoma + adenoma, bilateral, dosed 91 weeks, study length 93 weeks) was 3.84 mg/kg/day, the TD50 (rat, strain Fischer 344, females, in drinking water, site: clitoral gland, lesion: carcinoma + carcinoma, bilateral, dosed 91 weeks, study length 93 weeks) was 2.62 mg/kg/day and the TD50 (rat, strain Fischer 344, females, in drinking water, site: colon, descending + rectum, lesion: adenocarcinoma + adenomatous polyp, dosed 91 weeks, study length 93 weeks) was 44.3 mg/kg/day. It also gave a TD50 (rat, strain Fischer 344, females, in drinking water, site: liver, lesion: hepatocellular adenoma + hepatocellular carcinoma + neoplastic nodule, dosed 91 weeks, study length 93 weeks) of 33.3 mg/kg/day, a TD50 (rat, strain Fischer 344, females, in drinking water, site: liver, lesion: hepatocellular carcinoma + neoplastic nodule, dosed 91 weeks, study length 93 weeks) of 33.3 mg/kg/day and a TD50 (rat, strain Fischer 344, females, in drinking water, site: mammary gland, lesion: adenocarcinoma + adenoma + fibroadenoma, dosed 91 weeks, study length 93 weeks) of 3.24 mg/kg/day. The TD50 (rat, strain Fischer 344, females, in drinking water, site: mammary gland, lesion: adenocarcinoma, dosed 91 weeks, study length 93 weeks) was 7.7 mg/kg/day, the TD50 (rat, strain Fischer 344, females, in drinking water, site: mammary gland, lesion: adenoma + fibroadenoma, dosed 91 weeks, study length 93 weeks) was 6.22 mg/kg/day and the TD50 (rat, strain Fischer 344, females, in drinking water, site: mammary gland, lesion: fibroadenoma, dosed 91 weeks, study length 93 weeks) was 7.05 mg/kg/day. The TD50 (rat, strain Fischer 344, females, in drinking water, site: palate + pharynx + tongue, lesion: squamous-cell carcinoma + squamous-cell papilloma, dosed 91 weeks, study length 93 weeks) was 13.8 mg/kg/day, the TD50 (rat, strain Fischer 344, females, in drinking water, site: palate + tongue, lesion: squamous-cell carcinoma, dosed 91 weeks, study length 93 weeks) was 113 mg/kg/day and the TD50 (rat, strain Fischer 344, females, in drinking water, site: palate + tongue, lesion: squamous-cell papilloma, dosed 91 weeks, study length 93 weeks) was 16.6 mg/kg/day. For the same compound, the TD50 (rat, strain Fischer 344, females, in drinking water, site: palate, lesion: squamous-cell carcinoma + squamous-cell papilloma, dosed 91 weeks, study length 93 weeks) was 45.3 mg/kg/day, the TD50 (rat, strain Fischer 344, females, in drinking water, site: palate, lesion: squamous-cell papilloma, dosed 91 weeks, study length 93 weeks) was 47.8 mg/kg/day and the TD50 (rat, strain Fischer 344, females, in drinking water, site: pituitary gland, lesion: adenoma + pars distalis adenoma + pars distalis carcinoma, dosed 91 weeks, study length 93 weeks) was 9.4 mg/kg/day. For the same compound, the TD50 (rat, strain Fischer 344, females, in drinking water, site: pituitary gland, lesion: adenoma + pars distalis adenoma, dosed 91 weeks, study length 93 weeks) was 8.84 mg/kg/day, the TD50 (rat, strain Fischer 344, females, in drinking water, site: skin, lesion: basal-cell adenoma + basal-cell carcinoma, dosed 91 weeks, study length 93 weeks) was 10.2 mg/kg/day and the TD50 (rat, strain Fischer 344, females, in drinking water, site: skin, lesion: basal-cell adenoma, dosed 91 weeks, study length 93 weeks) was 12.3 mg/kg/day. The TD50 (rat, strain Fischer 344, females, in drinking water, site: tongue, lesion: squamous-cell carcinoma + squamous-cell papilloma, dosed 91 weeks, study length 93 weeks) was 19.9 mg/kg/day, the TD50 (rat, strain Fischer 344, females, in drinking water, site: uterus, lesion: endometrial stromal polyp, dosed 91 weeks, study length 93 weeks) was 11.6 mg/kg/day and the TD50 (rat, strain Fischer 344, males, in drinking water, site: Zymbal's gland, lesion: adenoma + adenoma, bilateral + carcinoma + carcinoma, bilateral, dosed 88 weeks, study length 92 weeks) was 3.02 mg/kg/day. It also gave a TD50 (rat, strain Fischer 344, males, in drinking water, site: Zymbal's gland, lesion: adenoma + adenoma, bilateral, dosed 88 weeks, study length 92 weeks) of 5.84 mg/kg/day, a TD50 (rat, strain Fischer 344, males, in drinking water, site: Zymbal's gland, lesion: carcinoma + carcinoma, bilateral, dosed 88 weeks, study length 92 weeks) of 6.71 mg/kg/day and a TD50 (rat, strain Fischer 344, males, in drinking water, site: adrenal medulla, lesion: pheochromocytoma benign, bilateral + pheochromocytoma, benign, dosed 88 weeks, study length 92 weeks) of 2.06 mg/kg/day. The TD50 (rat, strain Fischer 344, males, in drinking water, site: adrenal medulla, lesion: pheochromocytoma benign, bilateral + pheochromocytoma, malignant + pheochromocytoma, benign, dosed 88 weeks, study length 92 weeks) was 2.11 mg/kg/day, the TD50 (rat, strain Fischer 344, males, in drinking water, site: all sites + colon, ascending + cecum + colon + colon, descending + duodenum + ileum + jejunum + liver + palate + pharynx + preputial gland + rec, lesion: mesothelioma, benign + mesothelioma, malignant + adenomatous polyp + mucinous cystadenocarcinoma + adenocarcinoma + hepatocellular, dosed 88 weeks, study length 92 weeks) was 0.677 mg/kg/day and the TD50 (rat, strain Fischer 344, males, in drinking water, site: all sites, lesion: mesothelioma, benign + mesothelioma, malignant, dosed 88 weeks, study length 92 weeks) was 27.4 mg/kg/day. The TD50 (rat, strain Fischer 344, males, in drinking water, site: all sites, lesion: mononuclear-cell leukemia, dosed 88 weeks, study length 92 weeks) was 2.5 mg/kg/day, the TD50 (rat, strain Fischer 344, males, in drinking water, site: any site (literature study), lesion: several types, types named in the paper, dosed 88 weeks, study length 92 weeks) was 0.565 mg/kg/day and the TD50 (rat, strain Fischer 344, males, in drinking water, site: brain + cerebellum, cerebrum + cerebrum + cerebellum, lesion: astrocytoma, malignant, dosed 88 weeks, study length 92 weeks) was 10.9 mg/kg/day. For the same compound, the TD50 (rat, strain Fischer 344, males, in drinking water, site: cecum + colon + colon, descending + rectum, lesion: mucinous cystadenocarcinoma + adenocarcinoma, dosed 88 weeks, study length 92 weeks) was 38 mg/kg/day, the TD50 (rat, strain Fischer 344, males, in drinking water, site: colon, ascending + cecum + colon + colon, descending + rectum, lesion: adenomatous polyp + mucinous cystadenocarcinoma + adenocarcinoma, dosed 88 weeks, study length 92 weeks) was 9.91 mg/kg/day and the TD50 (rat, strain Fischer 344, males, in drinking water, site: colon, ascending + colon, descending + rectum, lesion: adenomatous polyp, dosed 88 weeks, study length 92 weeks) was 13.6 mg/kg/day. It also gave a TD50 (rat, strain Fischer 344, males, in drinking water, site: duodenum + ileum + jejunum, lesion: adenocarcinoma + mucinous cystadenocarcinoma, dosed 88 weeks, study length 92 weeks) of 8.44 mg/kg/day, a TD50 (rat, strain Fischer 344, males, in drinking water, site: liver, lesion: hepatocellular adenoma + hepatocellular carcinoma + neoplastic nodule, dosed 88 weeks, study length 92 weeks) of 7.8 mg/kg/day and a TD50 (rat, strain Fischer 344, males, in drinking water, site: liver, lesion: hepatocellular carcinoma + neoplastic nodule, dosed 88 weeks, study length 92 weeks) of 7.8 mg/kg/day. The TD50 (rat, strain Fischer 344, males, in drinking water, site: liver, lesion: neoplastic nodule, dosed 88 weeks, study length 92 weeks) was 12.4 mg/kg/day, the TD50 (rat, strain Fischer 344, males, in drinking water, site: palate + pharynx + tongue, lesion: squamous-cell carcinoma + squamous-cell papilloma, dosed 88 weeks, study length 92 weeks) was 4.22 mg/kg/day and the TD50 (rat, strain Fischer 344, males, in drinking water, site: palate, lesion: squamous-cell carcinoma + squamous-cell papilloma, dosed 88 weeks, study length 92 weeks) was 8.21 mg/kg/day. It also gave a TD50 (rat, strain Fischer 344, males, in drinking water, site: palate, lesion: squamous-cell papilloma, dosed 88 weeks, study length 92 weeks) of 8.35 mg/kg/day, a TD50 (rat, strain Fischer 344, males, in drinking water, site: pharynx + tongue, lesion: squamous-cell papilloma, dosed 88 weeks, study length 92 weeks) of 4.49 mg/kg/day and a TD50 (rat, strain Fischer 344, males, in drinking water, site: preputial gland, lesion: adenoma + adenoma, bilateral + carcinoma + carcinoma, bilateral, dosed 88 weeks, study length 92 weeks) of 1.78 mg/kg/day. It also gave a TD50 (rat, strain Fischer 344, males, in drinking water, site: preputial gland, lesion: adenoma + adenoma, bilateral, dosed 88 weeks, study length 92 weeks) of 3.28 mg/kg/day, a TD50 (rat, strain Fischer 344, males, in drinking water, site: preputial gland, lesion: carcinoma + carcinoma, bilateral, dosed 88 weeks, study length 92 weeks) of 4.65 mg/kg/day and a TD50 (rat, strain Fischer 344, males, in drinking water, site: skin, lesion: basal-cell adenoma + basal-cell carcinoma + sebaceous gland carcinoma + sebaceous adenoma, dosed 88 weeks, study length 92 weeks) of 0.767 mg/kg/day. It also gave a TD50 (rat, strain Fischer 344, males, in drinking water, site: skin, lesion: basal-cell adenoma + basal-cell carcinoma, dosed 88 weeks, study length 92 weeks) of 0.77 mg/kg/day, a TD50 (rat, strain Fischer 344, males, in drinking water, site: skin, lesion: basal-cell adenoma + sebaceous adenoma, dosed 88 weeks, study length 92 weeks) of 0.785 mg/kg/day and a TD50 (rat, strain Fischer 344, males, in drinking water, site: skin, lesion: basal-cell adenoma, dosed 88 weeks, study length 92 weeks) of 0.789 mg/kg/day. The TD50 (rat, strain Fischer 344, males, in drinking water, site: skin, lesion: basal-cell carcinoma + sebaceous gland carcinoma, dosed 88 weeks, study length 92 weeks) was 6.5 mg/kg/day, the TD50 (rat, strain Fischer 344, males, in drinking water, site: skin, lesion: basal-cell carcinoma, dosed 88 weeks, study length 92 weeks) was 6.55 mg/kg/day and the TD50 (rat, strain Fischer 344, males, in drinking water, site: skin, lesion: keratoacanthoma, dosed 88 weeks, study length 92 weeks) was 9.13 mg/kg/day. For the same compound, the TD50 (rat, strain Fischer 344, males, in drinking water, site: skin, lesion: sebaceous gland carcinoma + sebaceous adenoma, dosed 88 weeks, study length 92 weeks) was 24.6 mg/kg/day, the TD50 (rat, strain Fischer 344, males, in drinking water, site: skin, lesion: squamous-cell carcinoma + squamous-cell papilloma, dosed 88 weeks, study length 92 weeks) was 2.01 mg/kg/day and the TD50 (rat, strain Fischer 344, males, in drinking water, site: skin, lesion: squamous-cell carcinoma, dosed 88 weeks, study length 92 weeks) was 2.35 mg/kg/day. For the same compound, the TD50 (rat, strain Fischer 344, males, in drinking water, site: skin, lesion: squamous-cell papilloma, dosed 88 weeks, study length 92 weeks) was 6.6 mg/kg/day, the TD50 (rat, strain Fischer 344, males, in drinking water, site: subcutaneous tissue, lesion: fibroma + neurofibroma, dosed 88 weeks, study length 92 weeks) was 5.19 mg/kg/day and the TD50 (rat, strain Fischer 344, males, in drinking water, site: subcutaneous tissue, lesion: fibroma, dosed 88 weeks, study length 92 weeks) was 13.9 mg/kg/day. It also gave a TD50 (rat, strain Fischer 344, males, in drinking water, site: subcutaneous tissue, lesion: fibrosarcoma + fibroma + neurofibroma + sarcoma, dosed 88 weeks, study length 92 weeks) of 6.49 mg/kg/day, a TD50 (rat, strain Fischer 344, males, in drinking water, site: subcutaneous tissue, lesion: fibrosarcoma + fibroma, dosed 88 weeks, study length 92 weeks) of 13.6 mg/kg/day and a TD50 (rat, strain Fischer 344, males, in drinking water, site: testis, lesion: interstitial-cell adenoma, bilateral + interstitial-cell adenoma, dosed 88 weeks, study length 92 weeks) of 0.612 mg/kg/day. For the same compound, the TD50 (rat, strain Fischer 344, males, in drinking water, site: thyroid gland, lesion: c-cell adenoma + c-cell carcinoma, dosed 88 weeks, study length 92 weeks) was 4.7 mg/kg/day, the TD50 (rat, strain Fischer 344, males, in drinking water, site: thyroid gland, lesion: c-cell adenoma, dosed 88 weeks, study length 92 weeks) was 6.92 mg/kg/day and the TD50 (rat, strain Fischer 344, males, in drinking water, site: tongue, lesion: squamous-cell carcinoma + squamous-cell papilloma, dosed 88 weeks, study length 92 weeks) was 8.25 mg/kg/day. The TD50 (rat, strain Fischer 344, males, in drinking water, site: tongue, lesion: squamous-cell papilloma, dosed 88 weeks, study length 92 weeks) was 9.16 mg/kg/day.
